Target: T1, Cyclin E/CDK2 (Homo sapiens, UniProt P24941)
T1 construct: made in house; host or cells: SF9 insect cells, baculovirus co-infection
Assay: In vitro cyclin E/CDK2 kinase assay (33P-ATP, SPA beads), IC50 determination
Type: biochemical

SMILES: Cn1cc(-c2cnn3c(Nc4ccc(-n5ccnc5)cc4)cc(C4CCCNC4)nc23)cn1 (stereo not shown) [Example 90-C]
- IC50: 200 nM

From patent US7601724B2, “Substituted pyrazolo[1,5-a]pyrimidines as protein kinase inhibitors” (Schering Corporation, priority 2002, dated 2009)
